Measurements as given in US9453004B2, “Formylated xanthocillin analogues as neuroprotective agents” (NEURON BIOPHARMA, S.A., priority 2012, dated 2016).

Experiments:
[1] = tested on: SK-N-MC human neuroblastoma culture cells; assay: XXO-induced cell death in real time (RTCA cell index); type: cell-based; conditions: 20 hours post-treatment
Procedure: These cells, not exceeding 15 passages, were seeded on E-plate 16 specific for a real time assay with the RTCA system (Real-Time Cell Analyzer, […], Roche) with a cell density of 5×10^4 cells/well. After 24 hours of cell incubation at 37° C. and 5% CO2, the cell treatments for the control conditions (culture medium); XXO (10 μM xanthine/60 mU/mL xanthine oxidase); XXO plus […] or […] at 10, 40, 100, 400, 1000 or 4000 ng/ml, were performed. The cells were incubated (at 37° C. and 5% CO2) with these treatments for 72 hours, was monitored every 10 minutes. The values that are obtained are arbitrary units indicated by the cell index, calculated from the impedance data, which is a electrical parameter that establishes the relationship between the voltage and current intensity of the adhered cells which is used as a measurement of cell viability. […] The assay was performed following the same method as the one described in Example 6, testing the analogues at 40, 100, 400 or 1000 ng/ml in the presence of XXO. The cells were incubated (at 37° C. and 5% CO2) with these treatments for 72 hours, and was monitored every 10 minutes. The values that are obtained are arbitrary units indicated by cell index, calculated from the impedance data and used as a measurement of cell viability.

[2] = ABTS*+ method, in vitro antioxidant capacity for lipophilic compounds; type: biochemical; conditions: for 0.1 μg of each compound
Description: Based on the preceding results, the inventors decided to evaluate the in vitro antioxidant capacity of the synthesized analogues, using an antioxidant capacity measurement assay valid for lipophilic compounds, according to the ABTS*^+ method (Samaniego et al. 2007. Analytica Chimica Acta 593: 103-107). This method is based on forming the ABTS*^+ radical cation by means of oxidation with ammonium persulfate of the ABTS reagent [2,2′-azino-bis(3-ethylbenzothiazoline-6-sulfonic acid], which can be colorimetrically determined. In this assay, the compounds with antioxidant capacity suppress the oxidation of the radical in a concentration-dependent manner. A standard curve with increasing concentrations of trolox (hydrosoluble vitamin E analogue) is used to quantify antioxidant capacity, such that the results are indicated as a measurement of trolox equivalents (TE). The results obtained for analogues NPS0158 and NPS0159 are 174±13 μM TE and 165±44 μM TE, respectively, for 0.1 μg of each compound, so they show high in vitro antioxidant capacity.

[3] = tested on: SK-N-MC human neuroblastoma culture cells; assay: ROS measurement (H2DCFDA, normalized by LDH) in cells treated with XXO; type: cell-based
Procedure: Based on the preceding results, the inventors decided to evaluate the antioxidant capacity of the analogues in a cell model. The ROS measurement assay was performed on SK-N-MC human neuroblastoma culture cells, maintained as detailed in Example 2, subjected to aggression with xanthine/xanthine oxidase (XXO). The ROS measurement is taken by means of adding a permeable non-fluorescent probe in live cells (2′,7′-dichlorodihydrofluorescein diacetate, H2DCFDA; Biotium) which is oxidized by the action of ROS, generating 2′,7′-dichlorofluorescein (DCF) which can be detected in a fluorometer at 485 nm of excitation and 538 nm of emission. The fluorescence results were normalized by cell viability, measured by means of lactate dehydrogenase (LDH) activity, using the Roche Cytotoxicity Detection Kit (LDH). The results obtained with the analogues on the production of ROS are shown in FIG. 29 as the percentage of ROS corrected by LDH with respect to treatment with XXO of each analogue in a dose-response curve. A known ROS reduction control compound (C+) was used. * indicates the significant difference with respect to treatment with XXO according to the Student's t test (p<0.05).

[4] = tested on: SK-N-MC human neuroblastoma culture cells; assay: Camptothecin-induced apoptosis (DNA fragmentation, flow cytometry) in SK-N-MC cells; type: cell-based; conditions: CPT
Procedure: Based on the preceding results, the researchers decided to analyze the antiapoptotic effect of compounds NPS0155 and NPS0156. The assays were performed on two SK-N-MC human neuroblastoma culture cell lines stably transfected with constructs expressing the amyloid precursor protein (APP) gene encoding for the isoform primarily expressed in the brain, containing 695 amino acids cloned into the expression vector pcDNA3.1 (Invitrogen). One of the lines expresses the wild-type APP (APPwt) gene and the other line expresses the gene APP with the Swedish mutation (APPswe) which is a double mutation in exon 16 of the gene and produces a G to T transversion yielding the change of amino acid Lys595Asn and another A to C transversion causing the Met596Leu change, said mutation being related to the senile or hereditary forms of Alzheimer's disease. The cells were maintained as the parent cells SK-N-MC, as detailed in Example 2, using geneticin at 400 μg/ml as a selection antibiotic. To determine the effect of compounds NPS0155 and NPS0156 on apoptosis (programmed cell death), DNA fragmentation was analyzed by means of flow cytometry, produced by treatment with camptothecin (CPT) inhibiting the topoisomerase I enzyme, which impedes DNA duplication and triggers apoptotic cell death. The two cell lines, not exceeding 10 passages, were seeded on 12-well microtite plate treated for adherent cells with a cell density of 4×10^5 cells/well. After 24 hours of cell incubation at 37° C. and 5% CO2, the pre-treatment of the cells with 4 and 10 μg/mL of NPS0155 or of NPS0156 for 24 hours was performed; they were subsequently treated with 50 μM CPT for 6 hours. After treatment, the cells were collected together with their culture medium and centrifuged at 300×g for 5 minutes. The medium was removed, the cells were washed with PBS solution and were fixed for 2 minutes with 500 μL of 70% ethanol at −20° C. Once they were fixed, they were centrifuged at 400×g for 5 minutes, washed with PBS and labeled with 0.05 mg/mL of propidium iodide, diluted in cycle buffer (0.1% citrate sodium, 0.3% Nonidet P-40 and 0.02 mg/mL RNAse), and were incubated for 1 hour at 37° C. They were maintained at 4° C. for 18 hours and after this time, they were analyzed by flow cytometry, measuring propidium iodide fluorescence as DNA content distribution.
Continuing with the study, the researchers decided to analyze the antiapoptotic effect of the synthesized analogues by analyzing cellular DNA fragmentation by means of flow cytometry. The cellular fragmentation measurement assay was performed on SK-N-MC human neuroblastoma culture cells, maintained as detailed in Example 2, and subjected to an aggression with camptothecin (CPT), following the same approach as the one described in Example 8. […]

in vitro = conditions: PAMPA; for Papp at 4 h / percentage of permeability: pig; for percentage of permeability: 4 h
Procedure: A mixture of lipids derived from pig brain, with a phospholipid composition very similar to the composition forming the human BBB, and referred to as PBL (Porcine Polar Brain Lipid, Avanti Polar Lipids Inc) which is prepared in microtiter plates with a MAIPNTR10 filter (Millipore), with a PVDF membrane and pore size of […], was used to mimic the blood-brain barrier. […] The percentage of barrier crossing and the effective permeability (Pe) were calculated based on the absorbance data obtained. The following formula was applied to calculate the Pe: […]

[5] = TEAC in vitro antioxidant capacity assay; type: biochemical
Description: Based on the preceding results, the inventors decided to evaluate in vitro antioxidant capacity of the extract, for which the TEAC assay ([…]) was used. This method is based on the formation of the ferryl-myoglobin radical produced by reacting metmyoglobin with hydrogen peroxide, followed by the oxidation of the ABTS [2,2′-azino-bis(3-ethylbenzthiazoline-6-sulfonic acid] reagent by ferryl-myoglobin, which produces the radical cation ABTS*+, which can be colorimetrically determined. In this assay, the compounds with antioxidant capacity suppress the production of the radical in a concentration-dependent manner. A standard curve with increasing concentrations of trolox (6-hydroxy-2,5,7,8-tetramethylchroman-2-carboxylic acid, hydrosoluble vitamin E analogue) is used to quantify antioxidant capacity, such that the results are indicated as a measurement of trolox equivalents (TE).
Based on the preceding results, the researchers decided to analyze the in vitro antioxidant capacity of compounds NPS0155 and NPS0156 by means of the TEAC assay, described in Example 2. A standard curve with increasing concentrations of trolox (hydrosoluble vitamin E analogue) was used to quantify antioxidant capacity, such that the results are indicated as a measurement of trolox equivalents (TE).

[6] = tested on: SK-N-MC cells expressing wild-type APP (APPwt); assay: Camptothecin-induced apoptosis (DNA fragmentation, flow cytometry) in APPwt cells; type: cell-based, human; conditions: pre-treatment 24 hours at 4 and 10 μg/ml, then 50 μM CPT for 6 hours
Procedure: (§1) Based on the preceding results, the researchers decided to analyze the antiapoptotic effect of compounds NPS0155 and NPS0156. The assays were performed on two SK-N-MC human neuroblastoma culture cell lines stably transfected with constructs expressing the amyloid precursor protein (APP) gene encoding for the isoform primarily expressed in the brain, containing 695 amino acids cloned into the expression vector pcDNA3.1 (Invitrogen). One of the lines expresses the wild-type APP (APPwt) gene and the other line expresses the gene APP with the Swedish mutation (APPswe) which is a double mutation in exon 16 of the gene and produces a G to T transversion yielding the change of amino acid Lys595Asn and another A to C transversion causing the Met596Leu change, said mutation being related to the senile or hereditary forms of Alzheimer's disease. […] To determine the effect of compounds NPS0155 and NPS0156 on apoptosis (programmed cell death), DNA fragmentation was analyzed by means of flow cytometry, produced by treatment with camptothecin (CPT) inhibiting the topoisomerase I enzyme, which impedes DNA duplication and triggers apoptotic cell death. […] They were maintained at 4° C. for 18 hours and after this time, they were analyzed by flow cytometry, measuring propidium iodide fluorescence as DNA content distribution.

[7] = tested on: SK-N-MC cells expressing APP with the Swedish mutation (APPswe); assay: Camptothecin-induced apoptosis (DNA fragmentation, flow cytometry) in APPswe cells; type: cell-based, human; conditions: pre-treatment 24 hours at 4 and 10 μg/ml, then 50 μM CPT for 6 hours
Procedure: as §1

BBB permeability (conclusion) (in vitro)	Papp at 4 h (in vitro) [×10⁻⁶ cm/s]	percentage of permeability (in vitro) [%]	SMILES	maximum protection against death caused by XXO ([1]; at 1000 ng/ml) [%]	antioxidant capacity, trolox equivalents (TE) [2] [μM TE]	maximum ROS reduction (ROS corrected by LDH, with respect to XXO) ([3]; at 100 ng/ml) [%]	maximum protection against apoptosis ([4]; at 10 μg/ml) [%]	maximum protection against death caused by XXO ([1]; at 100 ng/ml) [%]	antioxidant capacity, trolox equivalents (TE) [5]	protection against apoptosis caused by CPT [6]	protection against apoptosis caused by CPT [7]	other results
moderate	5.19	13	Cc1ccc(/C=C(NC=O)/C(=C/c2ccc(C)cc2)NC=O)cc1 [NPS0158, (1Z,2Z)-2-(formylamino)-1-(4-methylbenzylidene)-3-(4-methylphenyl)prop-2-enylformamide]	27	174±13	34	28					
high	14.7	29	Cc1ccc(/C=C(NC=O)/C(=C/c2ccc(C)c(C)c2)NC=O)cc1C [NPS0161, (1Z,2Z)-1-(3,4-dimethylbenzylidene)-3-(3,4-dimethylphenyl)-2-(formylamino)-prop-2-enylformamide]					26				maximum ROS reduction (ROS corrected by LDH, with respect to XXO) ([3]; at 400 ng/ml): 45%; maximum protection against apoptosis ([4]; at 0.1 μg/ml): 35%
			O=CNC(=C\c1ccc(O)cc1)/C(=C/c1ccc(O)cc1)NC=O [NPS0156, (1Z,3Z)-1,4-Di(4-hydroxyphenyl)-2,3-diformamido-1,3-butadiene]					69	104±29 μM TE/μg of compound	Protection by NPS0156 was observed at the two tested doses	Protection by NPS0156 was observed at the two tested doses	
			O=CNC(=C\c1ccc2c(c1)OCO2)/C(=C/c1ccc2c(c1)OCO2)NC=O [NPS0159, (1Z,2Z)-3-(1,3-benzodioxol-5-yl)-1-(1,3-benzodioxol-5-ylmethylen)-2-(formylamino)prop-2-enylformamide]	35	165±44	27	23					
			CCOc1ccc(/C=C(NC=O)/C(=C/c2ccc(OCC)cc2)NC=O)cc1 [NPS0160, (1Z,2Z)-2-(formylamino)-1-(4-ethoxybenzylidene)-3-(4-ethoxyphenyl)prop-2-enylformamide]			31		23				maximum protection against apoptosis ([4]; at 1 μg/ml): 30%
			O=CNC(=C\c1ccc(O)cc1)/C(=C/c1ccc(O)c(O)c1)NC=O [NPS0155, (1Z,3Z)-1-(3,4-dihydroxyphenyl)-4-(4-hydroxyphenyl)-2,3-diformamido-1,3-butadiene]					27	81±19 μM TE/μg of compound	Protection by NPS0155 was observed at the two tested doses	Protection by NPS0155 was observed at the two tested doses	
